The results in this text go back to ChEMBL document CHEMBL5543095 (Eur J Med Chem, 2024).

Active and inactive are the calls of the source. The rule behind the calls is not given here.

In data set [1] the test system is U-87 MG. The data set can be described thus: Induction of cell cycle arrest in human U87 cells assessed as accumulation of cells at […] at 0.5 uM measured after 48 hrs by PI staining based flow cytometry analysis (reference value: 8.55%). It counts as functional, U-87MG ATCC. (A flow cytometer gives signals particle by particle.)
The test system of data set [2] is U-87MG ATCC. The data set can be described thus: Downregulation of TUBA1A gene expression in human U87 cells by transcriptome analysis. It counts as functional, cell-based.
For another data set, the target named is Tubulin (Homo sapiens) (UniProt P68371+Q9H4B7+P0DPH7+P68366+Q13509+Q71U36+P04350+Q3ZCM7+P07437+P68363+Q9BQE3+Q6PEY2+Q13885+Q9BVA1+Q9BUF5). The experiment in a line: Induction of microtubule depolymerization in human U87 cells assessed as degradation of intracellular tubulin skeleton by measuring reduction in fluorescence intensity at 0.5 to 1 uM incubated for 48 hrs by Alexa Flour 555/DAPI staining based confocal microscopic analysis. It counts as cell-based. The note with it: dose 0.5-1 µM.

In data set [3] the test system is U-87MG ATCC. The experiment in a line: Upregulation of CGNL1 gene expression in human U87 cells by transcriptome analysis. It counts as functional, cell-based.
Data set [4] deals with U-87 MG. The data set can be described thus: Induction of apoptosis in human U87 cells assessed as late apoptotic cells at 2.5 uM incubated for 48 hrs by Annexin V-FITC/PI staining based flow cytometry analysis (reference value: 2.08%). It counts as functional, U-87MG ATCC.
The test system of data set [5] is U-87 MG. The data set can be described thus: Induction of apoptosis in human U87 cells assessed as late apoptotic cells at 1.25 uM incubated for 48 hrs by Annexin V-FITC/PI staining based flow cytometry analysis (reference value: 2.08%). It counts as functional, U-87MG ATCC.
The test system of data set [6] is U-87MG ATCC. The experiment in a line: Downregulation of TUBA1B gene expression in human U87 cells by transcriptome analysis. Type of data set: functional, cell-based.
Data set [7] is described as follows: Toxicity in C57BL/6 mouse implanted with mouse GL261-Luc cells assessed as histopathological changes in kidney at 5 to 10 mg/kg, iv administered every other day on day 0,2,4,6,8,10 and measured after 12 days by H and E staining based analysis. It counts as organism-based. The note with it: in vivo, 288 h, dose 5-10 mg/kg, time 12 day.
The subject of data set [8] is U-87MG ATCC. The data set can be described thus: Downregulation of TUBB4B gene expression in human U87 cells by transcriptome analysis. Type of data set: functional, cell-based.
The subject of data set [9] is U-87 MG. The experiment in a line: Induction of cell cycle arrest in human U87 cells assessed as accumulation of cells at […] at 4 uM measured after 48 hrs by PI staining based flow cytometry analysis (reference value: 8.55%). Type of data set: functional, U-87MG ATCC.
Data set [10] in a line: Cytotoxicity against HUVEC cells assessed as inhibition of cell growth inhibition incubated for 48 hrs by CCK-8 assay. It counts as toxicity, cell-based. The note with it: human.
Data set [11] has as its system U-87 MG. The data set can be described thus: Induction of apoptosis in human U87 cells assessed as dead cells at 1.25 uM incubated for 48 hrs by Annexin V-FITC/PI staining based flow cytometry analysis (reference value: 0.013%). Type of data set: functional, U-87MG ATCC.
Data set [12] relates to U-87 MG. The data set can be described thus: Induction of apoptosis in human U87 cells assessed as live cells at 0.625 uM incubated for 48 hrs by Annexin V-FITC/PI staining based flow cytometry analysis (reference value: 91.7%). Type of data set: functional, U-87MG ATCC.
In data set [13] the test system is U-87 MG. The experiment in a line: Induction of apoptosis in human U87 cells assessed as late apoptotic cells at 0.625 uM incubated for 48 hrs by Annexin V-FITC/PI staining based flow cytometry analysis (reference value: 2.08%). It counts as functional, U-87MG ATCC.
The subject of data set [14] is U-87 MG. The data set can be described thus: Induction of apoptosis in human U87 cells assessed as dead cells at 2.5 uM incubated for 48 hrs by Annexin V-FITC/PI staining based flow cytometry analysis (reference value: 0.013%). It counts as functional, U-87MG ATCC.
Data set [15] has as its system U-87 MG. The experiment in a line: Induction of apoptosis in human U87 cells assessed as dead cells at 0.3125 uM incubated for 48 hrs by Annexin V-FITC/PI staining based flow cytometry analysis (reference value: 0.013%). Type of data set: functional, U-87MG ATCC.
The next data set deals with GL261-Luc. The experiment in a line: Antitumor activity against mouse GL261-Luc cells implanted in C57BL/6 mouse assessed as reduction in tumor cell growth at 10 mg/kg, iv administered every other day on day 0,2,4,6,8,10 and measured after 12 days by H and E staining based analysis. It counts as functional, organism-based. To be noted: time 12.0 day.
The subject of data set [16] is U-87 MG. The experiment in a line: Induction of apoptosis in human U87 cells assessed as dead cells at 0.625 uM incubated for 48 hrs by Annexin V-FITC/PI staining based flow cytometry analysis (reference value: 0.013%). Type of data set: functional, U-87MG ATCC.
In data set [17] the test system is U-87 MG. The experiment in a line: Induction of apoptosis in human U87 cells assessed as live cells at 1.25 uM incubated for 48 hrs by Annexin V-FITC/PI staining based flow cytometry analysis (reference value: 91.7%). Type of data set: functional, U-87MG ATCC.
The subject of data set [18] is U-87 MG. The experiment in a line: Induction of apoptosis in human U87 cells assessed as late apoptotic cells at 0.3125 uM incubated for 48 hrs by Annexin V-FITC/PI staining based flow cytometry analysis (reference value: 2.08%). It counts as functional, U-87MG ATCC.

In general, IC50 refers to the concentration that inhibits the measured activity by half. Regarding `Cc1ccc2ccc3c(c2n1)OC(N)=C(C#N)C3c1ccccc1` (stereo not given), the Activity with U-87 MG [1] is reported as 10.6%; with U-87 MG [4] it was 16.8%; in the data set with U-87 MG [5], 7.82%; in [7] it was “Non-Toxic”; in the data set with U-87 MG [9], 59.3%; with U-87 MG [11], 0.027%. Besides, the Activity in the data set on U-87 MG [12] is listed as 75.9%; in the data set on U-87 MG [13], 7.88%; with U-87 MG [14] it was 0.1%; with U-87 MG [15] it was 0.019%; in the data set with U-87 MG [16], 0.1%; in the data set on U-87 MG [17], 73.9%. In addition, in the data set on U-87 MG [18], the Activity came to 4.87%. Moreover, the outcome in the data set on U-87MG ATCC [2], on Tubulin (Homo sapiens), in the data set on U-87MG ATCC [3], with U-87MG ATCC [6], in the data set on U-87MG ATCC [8] and in the data set on GL261-Luc was Active. Also, the IC50 at 48 h in [10] was greater than 10 µM.
